According to patent publication US6511673B1, “Microbicidal composition” (Rohm and Haas Company, priority 2000, dated 2003):
Read-outs that look alike come from different tables or passages of the source.

What was measured:
Assay type in all cases: cell-based
[1] = test system: Aspergillus niger (ATCC #16404); test: MIC synergy assay in TSB, Test Medium Condition 1 (two-fold serial dilution); conditions: ATCC16404, 168 h
Experimental: (§1) Synergism was determined by an industrially accepted method described by Kull, F. C.; Eisman, P. C.; Sylwestrowicz, H. D. and Mayer, R. L., in Applied Microbiology 9:538-541 (1961), using the ratio determined by the formula:
(§2) Qa/QA+Qb/QB=Synergy Index (“SI”)
(§3) When the sum of Qa/QA and Qb/QB is greater than one, antagonism is indicated. […] The lower the SI, the greater the synergy shown by that particular mixture. The minimum inhibitory concentration (MIC) of a microbicide is the lowest concentration tested under a specific set of conditions that prevents the growth of added microorganisms.
Synergism of combinations of microbicides was determined using standard MIC assays in trypticase soy broth medium (“TSB” medium). In this method, a range of concentrations was tested by preparing two-fold serial dilutions of the compound tested in 96-well microtiter plates. All liquid media transfers were performed with calibrated single or multichannel digital pipettors. Stock solutions of the microbicides were prepared in appropriate solvents and added to the TSB medium. All subsequent dilutions in plates were made using an automated liquid handling system. Final concentrations of microbicides were obtained by making two-fold serial dilutions in two directions in the microtiter plate. […]

Candida albicans = test: High resolution MIC synergy assay in TSB, Test Medium Condition 2 (ten-fold serial dilution)
Experimental: as §1, §2, §3
(§4) Synergism of combinations of microbicides was determined using standard MIC assays in trypticase soy broth medium (“TSB” medium). In this method, a range of concentrations was tested by preparing two-fold serial dilutions of the compound tested in 96-well microtiter plates. All liquid media transfers were performed with calibrated single or multichannel digital pipettors. Stock solutions of the microbicides were prepared in appropriate solvents and added to the TSB medium. All subsequent dilutions in plates were made using an automated liquid handling system. Final concentrations of microbicides were obtained by making two-fold serial dilutions in two directions in the microtiter plate. […] A cell suspension of either Aspergillus niger (A. niger, ATCC #16404) or Candida albicans (C. albicans, ATCC #10231), adjusted to provide 1×10^5 cells per mL in each well, was added to the microtiter plates.
(§5) In a manner similar to that described above for Test Medium Condition 1, the synergism of combinations of microbicides determined in TSB by conducting high resolution MIC assays in the presence of various concentrations of MI. High resolution MICs were determined by adding varying amounts of microbicide to one column of a microtitre plate and doing subsequent […] dilutions using an automated liquid handling system to obtain a series of endpoints ranging from 2 ppm to 10,000 ppm active ingredient.

Aspergillus niger = test: as above
Experimental: as §1, §2, §3, §4, §5

[2] = 72 h, read-out: QA, MIC of Compound A acting alone

Row | MIC ([1]; A. niger, TSB, two-fold serial dilution, 25° C. one week, read-out: QB, MIC of Compound B acting alone) [µg/mL] | MIC (Candida albicans; C. albicans, TSB, high resolution MIC, 25° C. 72 hours, read-out: QB, MIC of Compound B acting alone) [µg/mL] | MIC (Aspergillus niger; A. niger, TSB, high resolution MIC, 25° C. 72 hours, read-out: QB, MIC of Compound B acting alone) [µg/mL] | SMILES | MIC ([1]; read-out: QA, MIC of Compound A acting alone) [µg/mL] | MIC (Candida albicans; [2]) [µg/mL] | MIC (Aspergillus niger; [2]) [µg/mL]
1 |  |  |  | Cn1sccc1=O [MI, 2-methyl-3-isothiazolone] | 250 | 100 | 150
2 | 594 | 300 | 200 | CCCOC(=O)c1ccc(O)cc1 [PP, propyl para-hydroxybenzoate] |  |  | 
